The experiment has as its target T1, human PDE10A full length (Homo sapiens, UniProt Q9Y233).
T1 construct: purchased Enzo Life Science, Lausen, Switzerland SE-534
In words: PDE10A Scintillation Proximity Assay (SPA), human PDE10A full length assay. The experiment is classed as biochemical. As to conditions: 50 nM cGMP + 50 nM [3H]-cGMP, 20 minutes at room temperature, read-out: PDE10A inhibition IC50. The method, then:
The following test was carried out in order to determine the activity of the compounds of the present invention. PDE10 activity of the compounds of the present invention was determined using a Scintillation Proximity Assay (SPA)-based method similar to the one previously described (Fawcett, L. et al., Proc Natl Acad Sci USA (2000) 97(7):3702-3707).
The human PDE10A full length assay was performed in 96-well micro titer plates. The reaction mixture of 50 μl contained 20 mM HEPES pH=7.5/10 mM MgCl2/0.05 mg/ml BSA (Sigma cat. #A-7906), 50 nM cGMP (Sigma, cat. #G6129) and 50 nM [^3H]-cGMP (GE Healthcare, cat. #TRK392 S.A. 13.2Ci/mmol), 3.75 ng/well PDE10A enzyme (Enzo Life Science, Lausen, Switzerland cat #SE-534) with or without a specific test compound. A range of concentrations of the potential inhibitor was used to generate data for calculating the concentration of inhibitor resulting in 50% of the effect (e.g. IC50, the concentration of the competitor inhibiting PDE10A activity by 50%). Non-specific activity was tested without the enzyme. The reaction was initiated by the addition of the substrate solution (cGMP and [^3H]-cGMP) and allowed to progress for 20 minutes at room temperature. The reaction was terminated by adding 25 μl of YSi-SPA scintillation beads (GE Healthcare, cat. #RPNQ0150) in 18 mM zinc sulphate solution (stop reagent). After 1 h under shaking, the plate was centrifuged one minute at 170 g to allow beads to settle. Afterwards, radioactive counts were measured on a Perkin Elmer TopCount Scintillation plate reader.

This note sets out measurements from US8349824B2, “Triazolopyridine compounds” (Hoffmann-La Roche Inc., priority 2010, dated 2013).

What is called IC50 is the concentration that inhibits the measured activity by half.

T1 sequence (Q9Y233 1-779 isoform Q9Y233-1): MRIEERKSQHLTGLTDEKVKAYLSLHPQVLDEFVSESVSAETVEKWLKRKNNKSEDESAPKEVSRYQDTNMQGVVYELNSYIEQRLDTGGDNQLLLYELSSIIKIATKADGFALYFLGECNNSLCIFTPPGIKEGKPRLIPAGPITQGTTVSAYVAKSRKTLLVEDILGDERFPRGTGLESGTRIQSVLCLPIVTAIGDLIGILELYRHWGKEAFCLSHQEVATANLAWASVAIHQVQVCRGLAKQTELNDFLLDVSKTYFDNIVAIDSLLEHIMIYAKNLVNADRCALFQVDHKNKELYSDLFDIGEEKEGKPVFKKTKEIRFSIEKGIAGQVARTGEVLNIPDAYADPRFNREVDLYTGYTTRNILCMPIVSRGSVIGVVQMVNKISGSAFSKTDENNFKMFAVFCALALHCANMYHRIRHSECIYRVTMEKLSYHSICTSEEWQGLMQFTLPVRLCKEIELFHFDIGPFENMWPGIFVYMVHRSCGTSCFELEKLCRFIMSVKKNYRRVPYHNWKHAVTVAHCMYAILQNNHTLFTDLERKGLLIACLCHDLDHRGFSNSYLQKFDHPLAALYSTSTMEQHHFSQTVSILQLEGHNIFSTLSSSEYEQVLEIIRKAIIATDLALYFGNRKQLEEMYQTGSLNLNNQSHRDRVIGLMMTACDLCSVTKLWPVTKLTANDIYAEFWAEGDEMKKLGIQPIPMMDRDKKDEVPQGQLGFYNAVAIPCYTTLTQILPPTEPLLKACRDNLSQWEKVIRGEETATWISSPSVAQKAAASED

For `COCCN(C)C(=O)c1cnn(C)c1C(=O)Nc1ccn2nc(-c3cccc(OCCF)c3)nc2c1` [Example 88, 2-Methyl-2H-pyrazole-3,4-dicarboxylic acid 3-({2-[3-(2-fluoro-ethoxy)-phenyl]-[1,2,4]triazolo[1,5-a]pyridin-7-yl}-amide)4-[(2-methoxy-ethyl)-methyl-amide]], the IC50 is 0.42 nM. The same measure for `COCCN(C)C(=O)c1cnn(C)c1C(=O)Nc1ccn2nc(-c3cccc(OCF)c3)nc2c1` [Example 89, 2-Methyl-2H-pyrazole-3,4-dicarboxylic acid 3-{[2-(3-fluoromethoxy-phenyl)-[1,2,4]triazolo[1,5-a]pyridin-7-yl]-amide} 4-[(2-methoxy-ethyl)-methyl-amide]]: 0.59 nM. The same measure for `Cn1ncc(C(=O)N2CCC2)c1C(=O)Nc1ccn2nc(-c3cccc(OCCF)c3)nc2c1` [Example 90, 4-(Azetidine-1-carbonyl)-2-methyl-2H-pyrazole-3-carboxylic acid {2-[3-(2-fluoro-ethoxy)-phenyl]-[1,2,4]triazolo[1,5-a]pyridin-7-yl}-amide]: 1.02 nM; for `Cn1ncc(C(=O)N2CCC2)c1C(=O)Nc1ccn2nc(-c3cccc(OCF)c3)nc2c1` [Example 91, 4-(Azetidine-1-carbonyl)-2-methyl-2H-pyrazole-3-carboxylic acid [2-(3-fluoromethoxy-phenyl)-[1,2,4]triazolo[1,5-a]pyridin-7-yl]-amide]: 0.86 nM.

Take `CN(CCO)C(=O)c1cnn(C)c1C(=O)Nc1ccn2nc(-c3ccccc3)nc2c1` [Example 92, 2-Methyl-2H-pyrazole-3,4-dicarboxylic acid 4-[(2-hydroxy-ethyl)-methyl-amide]3-[(2-phenyl-[1,2,4]triazolo[1,5-a]pyridin-7-yl)-amide]]: the IC50 worked out at 0.98 nM. For `COC(=O)CN(C)C(=O)c1cnn(C)c1C(=O)Nc1ccn2nc(-c3ccccc3)nc2c1` [Example 93, {Methyl-[1-methyl-5-(2-phenyl-[1,2,4]triazolo[1,5-a]pyridin-7-ylcarbamoyl)-1H-pyrazole-4-carbonyl]-amino}-acetic acid methyl ester], the IC50 is 2.16 nM.

As for `CN(CCO)C(=O)c1cnn(C)c1C(=O)Nc1ccn2nc(N3CCOCC3)nc2c1` [Example 94, 2-Methyl-2H-pyrazole-3,4-dicarboxylic acid 4-[(2-hydroxy-ethyl)-methyl-amide]3-[(2-morpholin-4-yl-[1,2,4]triazolo[1,5-a]pyridin-7-yl)-amide]], the IC50 amounted to 20.4 nM. For `COC(=O)CN(C)C(=O)c1cnn(C)c1C(=O)Nc1ccn2nc(N3CCOCC3)nc2c1` [Example 95, {Methyl-[1-methyl-5-(2-morpholin-4-yl-[1,2,4]triazolo[1,5-a]pyridin-7-ylcarbamoyl)-1H-pyrazole-4-carbonyl]-amino}-acetic acid methyl ester], the IC50 is 50.4 nM. To `Cn1ncc(C(=O)NCCF)c1C(=O)Nc1ccn2nc(-c3ccccc3)nc2c1` [Example 96, 2-Methyl-2H-pyrazole-3,4-dicarboxylic acid 4-[(2-fluoro-ethyl)-amide]3-[(2-phenyl[1,2,4]triazolo[1,5-a]pyridin-7-yl)-amide]] belongs 2.12 nM; to `COc1ccccc1-c1nc2cc(NC(=O)c3c(C(=O)N(C)C)cnn3C)ccn2n1` [Example 97, 2-Methyl-2H-pyrazole-3,4-dicarboxylic acid 4-dimethylamide 3-{[2-(2-methoxy-phenyl)-[1,2,4]triazolo[1,5-a]pyridin-7-yl]-amide}], 0.31 nM; to `CCN(C)C(=O)c1cnn(C)c1C(=O)Nc1ccn2nc(-c3ccccc3OC)nc2c1` [Example 98, 2-Methyl-2H-pyrazole-3,4-dicarboxylic acid 4-(ethyl-methyl-amide)3-{[2-(2-methoxy-phenyl)-[1,2,4]triazolo[1,5-a]pyridin-7-yl]-amide}], 0.67 nM. The same measure for `COCCN(C)C(=O)c1cnn(C)c1C(=O)Nc1ccn2nc(-c3ccccc3OC)nc2c1` [Example 99, 2-Methyl-2H-pyrazole-3,4-dicarboxylic acid 4-[(2-methoxy-ethyl)-methyl-amide]3-{[2-(2-methoxy-phenyl)-[1,2,4]triazolo[1,5-a]pyridin-7-yl]-amide}]: 0.74 nM; for `CCN(C)C(=O)c1cnn(C)c1C(=O)Nc1ccn2nc(-c3ccccc3OCCF)nc2c1` [Example 101, 2-Methyl-2H-pyrazole-3,4-dicarboxylic acid 4-(ethyl-methyl-amide)3-({2-[2-(2-fluoro-ethoxy)-phenyl]-[1,2,4]triazolo[1,5-a]pyridin-7-yl}-amide)]: 0.65 nM. To `CN1CCN(C(=O)c2cnn(C)c2C(=O)Nc2ccn3nc(-c4cccc(F)c4)nc3c2)CC1` [Example 108, 2-Methyl-4-(4-methyl-piperazine-1-carbonyl)-2H-pyrazole-3-carboxylic acid [2-(3-fluoro-phenyl)-[1,2,4]triazolo[1,5-a]pyridin-7-yl]-amide] belongs 15.6 nM; to `Cn1ncc(C(=O)N2CCC2)c1C(=O)Nc1ccn2nc(-c3cccnc3F)nc2c1` [Example 110, 4-(Azetidine-1-carbonyl)-2-methyl-2H-pyrazole-3-carboxylic acid [2-(2-fluoro-pyridin-3-yl)-[1,2,4]triazolo[1,5-a]pyridin-7-yl]-amide], 4.66 nM. On to `Cn1ncc(C(=O)NC2CC2)c1C(=O)Nc1ccn2nc(N3CCOCC3)nc2c1` [Example 113, 2-Methyl-2H-pyrazole-3,4-dicarboxylic acid 4-cyclopropylamide 3-[(2-morpholin-4-yl-[1,2,4]triazolo[1,5-a]pyridin-7-yl)-amide]], for which the IC50 is 19.1 nM. To `CN(CCF)c1nc2cc(NC(=O)c3c(C(=O)N4CCCC4)cnn3C)ccn2n1` [Example 115, 2-Methyl-4-(pyrrolidine-1-carbonyl)-2H-pyrazole-3-carboxylic acid {2-[(2-fluoro-ethyl)-methyl-amino]-[1,2,4]triazolo[1,5-a]pyridin-7-yl}-amide] belongs 2.29 nM; to `CCN(C)C(=O)c1cnn(C)c1C(=O)Nc1ccn2nc(-c3cccnc3)nc2c1` [Example 116, 2-Methyl-2H-pyrazole-3,4-dicarboxylic acid 4-(ethyl-methyl-amide)3-[(2-pyridin-3-yl-[1,2,4]triazolo[1,5-a]pyridin-7-yl)-amide]], 1.11 nM; to `Cn1ncc(C(=O)N2CCOCC2)c1C(=O)Nc1ccn2nc(-c3cccc(F)n3)nc2c1` [Example 121, 2-Methyl-4-(morpholine-4-carbonyl)-2H-pyrazole-3-carboxylic acid [2-(6-fluoro-pyridin-2-yl)-[1,2,4]triazolo[1,5-a]pyridin-7-yl]-amide], 5.06 nM. Regarding `Cn1ncc(C(=O)N2CC3(COC3)C2)c1C(=O)Nc1ccn2nc(N3CCCC3)nc2c1` [Example 122, 2-Methyl-4-(2-oxa-6-aza-spiro[3.3]heptane-6-carbonyl)-2H-pyrazole-3-carboxylic acid (2-pyrrolidin-1-yl-[1,2,4]triazolo[1,5-a]pyridin-7-yl)-amide], the IC50 was 6.21 nM. The same measure for `CN(c1nc2cc(NC(=O)c3c(C(=O)O)cnn3C)ccn2n1)C1CC1` [Example 125, 5-[2-(Cyclopropyl-methyl-amino)-[1,2,4]triazolo[1,5-a]pyridin-7-ylcarbamoyl]-1-methyl-1H-pyrazole-4-carboxylic acid]: 54 nM; for `CN(C(=O)c1cnn(C)c1C(=O)Nc1ccn2nc(N(C)C3CC3)nc2c1)C1CC1` [Example 126, 2-Methyl-2H-pyrazole-3,4-dicarboxylic acid 4-(cyclopropyl-methyl-amide)3-{[2-(cyclopropyl-methyl-amino)-[1,2,4]triazolo[1,5-a]pyridin-7-yl]-amide}]: 0.49 nM. For the molecule `CN(c1nc2cc(NC(=O)c3c(C(=O)N4CCC4)cnn3C)ccn2n1)C1CC1` [Example 127, 4-(Azetidine-1-carbonyl)-2-methyl-2H-pyrazole-3-carboxylic acid [2-(cyclopropyl-methyl-amino)-[1,2,4]triazolo[1,5-a]pyridin-7-yl]-amide], the half-inhibitory concentration (IC50) came out at 0.73 nM. The same measure for `CN(c1nc2cc(NC(=O)c3c(C(=O)N4CCOCC4)cnn3C)ccn2n1)C1CC1` [Example 128, 2-Methyl-4-(morpholine-4-carbonyl)-2H-pyrazole-3-carboxylic acid [2-(cyclopropyl-methyl-amino)-[1,2,4]triazolo[1,5-a]pyridine-7-yl]-amide]: 3.37 nM; for `Cn1ncc(C(=O)N2CCN3CCC2C3)c1C(=O)Nc1ccn2nc(-c3ccccc3)nc2c1` (centres unmarked) [Example 129, 4-(1,4-Diaza-bicyclo[3.2.1]octane-4-carbonyl)-2-methyl-2H-pyrazole-3-carboxylic acid (2-phenyl-[1,2,4]triazolo[1,5-a]pyridin-7-yl)-amide]: 1.1 nM.

On to `Cn1ncc(C(=O)N2CCC2)c1C(=O)Nc1ccn2nc(-c3ccccc3OCCF)nc2c1` [Example 130, 4-(Azetidine-1-carbonyl)-2-methyl-2H-pyrazole-3-carboxylic acid {2-[2-(2-fluoro-ethoxy)-phenyl]-[1,2,4]triazolo[1,5-a]pyridin-7-yl}-amide], for which the IC50 was 0.34 nM.
